The results in this text go back to a melting point compilation (Tetko et al.; mined from patent text by program, amines drawn as free bases though some values may be those of a salt).

Each structure is given as a SMILES string. A value given as a limit tells only on which side of the number the result lay.

The term melting point denotes the temperature, or range, at which the solid turns liquid.

In turn, `CCOC(=O)c1cn(NCC=O)c2cc(-n3cccc3)c(F)cc2c1=O` had a melting point of 194 to 198 °C.
As for `O=[N+]([O-])c1ccccc1-c1ccno1`, the figure is 66 to 69 °C; as for `CCOc1nnc2n1C=Cc1ccccc1C2`, 143 to 144 °C.
`CCN(C=C(C#N)C#N)c1cc(C(F)(F)F)cc(C(F)(F)F)c1`: the melting point lay within 118 to 120 °C.
To `CS(=O)(=O)Nc1ccc(-c2ccc(C(=O)O)c(=O)[nH]2)cc1` belongs above 320 °C.
With `Cc1oc2c(NC(=O)c3c(Cl)ccc(CO)c3Cl)cccc2c1C`, the melting point is 258 to 261 °C.
In turn, `CC(=O)Cc1ccc(OCC(O)CN2CCN(c3ccccc3)CC2)cc1` (stereo not drawn) yielded a melting point of 121 to 122 °C.
As for `CNC(=O)CC(O)(c1ccccc1)c1ccc2nc(N)n(S(=O)(=O)C(C)C)c2c1` (stereo not drawn), the figure is 92 to 95 °C.
`COc1cc(NC(=O)Nc2ccccc2)cc(OC)n1`: the melting point fell in the range of 190 to 192 °C.
`O=[N+]([O-])c1cccc2c1nnn2C1CCCC(Cl)C1Cl` (stereo not drawn) gave a melting point of 145 to 148 °C.
As for `CNc1cc(-n2cc(C(=O)O)c(=O)c3cc(F)c(F)c(C)c32)c(F)cc1F`, the figure is 238 °C.
As to `COc1ccc(-n2ncc(-c3ccc(C=Cc4ccc(-c5nc6ccccc6o5)cc4)cc3)n2)cc1`, the melting point was 255 °C.
Turning to `CN1CC2Cc3cc4c(cc3C(c3ccc([N+](=O)[O-])cc3)=NN2C1=O)OCO4` (stereo not drawn), the melting point lay in the range of 252 to 255 °C.
Consider `CC(C)c1cccc(C(C)C)c1NC(=O)C(Cc1ccccc1)NCc1ccccc1` (stereo not drawn), for which the melting point lay within 120 to 124 °C.
In the case of `CCCCS(=O)(=O)Oc1c(C(=O)OC(C)C)sc(C(=O)OC(C)C)c1C`, the melting point lay in the range of 59 to 61 °C.
Compound `CCS(=O)(=O)c1ncc(S(N)(=O)=O)s1` gave a melting point of 129 to 130 °C.
To `CCc1noc(CC(O)c2ccccc2)c1C(=O)NC` (stereo not drawn) belongs 135 to 137 °C.
Consider `N#Cc1cc(Cc2ccncc2)cc(-c2cccc([N+](=O)[O-])c2)c1O`, for which the melting point was determined as 225 °C.
As for `CCOC(=O)c1ccc2n1Cc1ccccc1N1CCN(C)CC21` (stereo not drawn), the figure is 128 to 130 °C; as for `CCN(c1ccc(C(=O)O)cc1)c1cc2c3c(c1)CCCC3CCC2`, 284 to 285 °C; as for `O=c1[nH]cc(Cc2cccnc2)cc1[N+](=O)[O-]`, 216 to 217 °C.
In the case of `CCOC(=O)c1nsc(Br)c1O`, the melting point was 44 to 47 °C.
Compound `O=P(O)(O)C1CC(c2ccc(F)cc2)=NO1` (stereo not drawn) gave a melting point of 206 °C.
To `COC1C(OC(=O)c2ccccc2)C(COC(=O)c2ccccc2)OC1n1ccc(=O)[nH]c1=O` (stereo not drawn) belongs 132 to 134 °C; to `CN1C(=O)CCN(c2ccc(C(F)(F)F)cc2)C1=O`, 115 to 117 °C; to `OCCCNc1ccnc(Cl)n1`, 113 to 114 °C.
As for `Cc1ccc2c(NCc3ccc(NC(=O)c4ccc(F)cc4)cc3)nc(N3CCN[C@@H](C)C3)nc2c1`, the figure is 200 to 202 °C.
To `CC(C)OC(=O)c1cc(-c2nn(C)c(C(F)(F)F)c2C=O)c(F)cc1Cl` belongs 90 °C; to `O=C(c1cccs1)c1cnn2c(-c3cc([N+](=O)[O-])ccc3Cl)ccnc12`, 162 to 166 °C; to `CN1CCC(c2c[nH]c3ccc(NC(=O)c4ccncc4)nc23)CC1`, 126 to 128 °C.
With `Cn1nnc2ccc(C(c3ccc(Cl)cc3)n3cncn3)cc21` (stereo not drawn), the melting point is 130 to 135 °C.
As for `CC(C)(C)OC(=O)N1CCN(CC(O)Cn2c3ccc(Br)cc3c3cc(Br)ccc32)CC1` (stereo not drawn), the figure is 90 to 95 °C.
To `FC(F)(F)c1nncn1-c1ccc(Cl)cc1` belongs 108 °C; to `CC1(COCCCCCCOc2ccc(C(=O)O)cc2)COC1`, 58.5 °C.
To `CC(c1ccc2c(c1)CCC(=O)N2)n1ccnc1` (stereo not drawn) belongs 185 °C.
For `Cc1cccc(NC(=O)NCC(=O)N2C(C(=O)OC(C)(C)C)CCCC2c2ccccc2)c1` (stereo not drawn), the melting point stood at 123 °C.
With `COc1cccc(C2CC(=O)N(c3ccnc(NC(=O)NCc4ccccn4)c3)C2)c1` (stereo not drawn), the melting point fell in the range of 189 to 190 °C.
As for `CSc1ccc(Nc2cc(-c3nnc(C(C)(C)OC(C)=O)o3)ccn2)cc1`, the figure is 142 to 143 °C; as for `CC1(C2CCCC2)Cc2cc(OCC(=O)NC(=N)N)c(Cl)c(Cl)c2C1=O` (stereo not drawn), 216 °C; as for `CC(C)(C)c1cc(NC(=O)Nc2ccc(-c3c(C(N)=O)[nH]c4ccccc34)cc2)no1`, 176 to 178 °C.
Take `O=Cc1cc2n(n1)-c1ccc(Cl)cc1C(c1ccccc1)NC2=O` (stereo not drawn): the melting point lay in the range of 276 to 278 °C.
As to `O=C(c1ccccc1)c1ccc(-c2nc(COc3cccc(CCCn4ccnc4)c3)co2)cc1`, the melting point lay in the range of 97 to 98 °C.
Consider `CC(C)Cn1c(=O)n(C)c(=O)c2cc(Cc3cccc4ccccc34)sc21`, for which the melting point lay in the range of 137 to 138 °C.
`O=C(NC1C2CC3CC(C2)CC1C3)C1CCCCN1` (stereo not drawn) returned a melting point of 112 to 114 °C.
Take `CCCCCCC(=O)Nc1cccc2c1C(=O)N(C1(C)CCC(=O)NC1=O)C2=O` (stereo not drawn): the melting point was in the range of 172 to 174 °C.
As to `O=Cc1ccc2ccn(C3CCN(CCc4ccccc4F)CC3)c2c1`, the melting point is 130 to 131 °C.
Regarding `CC(C)(C)NCCCOc1ccccc1C(=O)c1cccc2[nH]ccc12`, the melting point was determined as 130 °C.
As for `CC(=O)Oc1ccc(-c2cnc(-c3ccccc3)[nH]c2=O)cc1OC(C)=O`, the figure is 240 °C; as for `O=C1Cc2cccc(Nc3ccc(Cl)cc3)c2N1`, 190 to 192 °C.
In turn, `CCOC(=O)C(=O)NS(=O)(=O)Cc1nc(-c2ccc(Cl)c(Cl)c2)cs1` came in with a melting point of 180 to 182 °C.
To `Cc1cccc(C(=O)NC(C)C)c1[N+](=O)[O-]` belongs 126 to 128 °C; to `COC(=O)C1=C(CO)NC(C)=C(C(=O)OC(C)C)C1c1ccccc1[N+](=O)[O-]` (stereo not drawn), 135 to 137 °C.
As for `COc1ccc(C(=O)Nc2c(Cl)cncc2Cl)c2c3cc([N+](=O)[O-])ccc3n(C)c12`, the figure is above 250 °C; as for `NC(=O)C1=CN(CCC(=O)NCCc2ccccc2)C=CC1`, 121 to 123 °C.
To `O=C(O)c1ccc(C(=O)O)c(OC(F)(F)C(F)OC(F)(F)C(F)(OC(F)(F)C(F)(F)C(F)(F)F)C(F)(F)F)c1` (stereo not drawn) belongs 236 to 239 °C.
Consider `O=C(O)[C@H](Cc1ccccc1)Nc1c(NCc2cccnc2)c(=O)c1=O`, for which the melting point lay in the range of 259 to 261 °C.
As for `CCOCc1nc2c(N)nc3cc(-c4cn[nH]c4)ccc3c2n1CC(C)(C)O`, the figure is above 250 °C; as for `CON=C(C(=O)OC)c1cc(Cl)nc(NC=O)n1`, 165 to 172 °C; as for `CCOCc1nc2c(N)nc3ccccc3c2n1N1CCOCC1`, 223 to 224 °C.
`C#Cc1ccc2c(c1)C(C)(C)CCS2=O` (stereo not drawn): the melting point fell in the range of 105 to 107 °C.
To `O=C1c2ccc3c4cccc5cccc(c6ccc(c2c36)C(=O)N1CCO)c54` belongs above 260 °C.
To `CC1=C(C(=O)OCCCl)C(c2cccc([N+](=O)[O-])c2)C(C(=O)OCC(C)C)=C(C)N1` (stereo not drawn) belongs 150 to 153 °C.
As for `CN(C(=O)CN(C(=O)CNC(=O)Nc1cccc(CO)c1)c1ccccc1)c1ccccc1`, the figure is 120 °C; as for `CCOC(=O)CC(=O)c1cc(F)c(F)c(F)c1F`, 47 to 49 °C; as for `COCC1COc2cc3ncnc(Nc4ccc(F)c(Cl)c4)c3cc2O1` (stereo not drawn), 260 to 285 °C.
`CC(=O)c1cc(F)ccc1Oc1nc2ccc(-n3cc(-c4ccccc4)nn3)cc2cc1Cc1ccccc1` returned a melting point of 183 °C.
The compound `O=c1cc(-c2cccc(Cl)c2)c2cc(C(c3ccc(Cl)cc3)n3ccnc3)cc3c2n1CCC3` (stereo not drawn) showed a melting point of 195 °C.
As for `O=[N+]([O-])c1ccc(CN2CCNS2(=O)=O)cc1`, the figure is 115 to 117 °C; as for `CC(n1ncnn1)C(F)(c1ccc(OC(F)(F)F)cc1)c1ccc(OC(F)(F)F)cc1` (stereo not drawn), 68 to 70 °C; as for `COC(=O)NNC(=S)Cc1cccs1`, 74 to 75 °C.
In the case of `O=C1CC(c2ccccc2Cl)=Nc2c1cccc2C(=O)OCCO`, the melting point was in the range of 170 to 171 °C.
`CCOC(=O)C1=C(N)N=C(OCC)C(C(=O)OCC)C1c1cc([N+](=O)[O-])ccc1Cl` (stereo not drawn) showed a melting point of 136 to 137 °C.
To `COC(=O)CC[C@H]1CC[C@@H](n2c(C)nn(-c3ccc(C#N)cc3)c2=O)CC1` belongs 92 to 96 °C; to `Nc1cc(N2CCOCC2)cc(C(F)(F)F)c1`, 96 to 97 °C; to `CCOC(=O)c1ccc(CCNS(=O)(=O)C=Cc2ccccc2)cc1`, 59 to 61 °C.
Consider `COc1ccc(-n2nc(CO)cc2-c2ccc(Cl)cc2)cc1`, for which the melting point was 95 to 97 °C.
As for `O=C(Nc1ccc(F)cc1)NN1CC=C(c2ccccc2)CC1`, the figure is 200 to 212 °C.
As for `CCS(=O)(=O)N1CCN(c2ccc(NC(=O)c3cc(=O)c4cc(OC)cc(N5CCN(C)CC5)c4o3)cc2)CC1`, the figure is 232 to 234 °C.
To `O=[N+]([O-])c1ccc(NCCO)nc1NCCO` belongs 130 to 131 °C; to `CCOC(=O)c1nccn1C1Cc2ccc(Cl)c(Cl)c2C1=O` (stereo not drawn), 90 °C.
As for `NC(CNCCO)(CC(=O)O)c1ccccc1` (stereo not drawn), the melting point lay in the range of 140 to 143 °C.
To `NC(=O)COc1ccc(CN2C(=O)C3(COc4cc5c(cc43)CCO5)c3ccccc32)cc1` (stereo not drawn) belongs 215 to 216 °C; to `COc1ccc(CCn2ccn(C3CCc4ccccc4C3)c2=S)cc1OC` (stereo not drawn), 97 to 101 °C; to `Cc1cc(F)ccc1-c1nc(N[C@H]2CC[C@H](O)CC2)nc2c1ccc(=O)n2-c1ccccc1F`, 148 to 151 °C.
On to `Cc1cc(CC=CCO)c(O)c2c1NC(=O)C2(C)C`, for which the melting point is 174 °C.
Turning to `CCCCOc1c(CN2C(=O)c3ccccc3C2=O)n(CCC(=O)O)c(=O)c2cc(Cl)c(Cl)cc12`, the melting point is 196 to 197 °C.
Take `CCOC(=O)c1ccc(C=C(C)c2ccc3c(c2)SCCC3(C)C)cc1`: the melting point was in the range of 64 to 65 °C.
In the case of `COc1cc2c(cc1OC)CN(CCCc1ccc(NC(=O)c3cc4ccccc4cn3)cc1)CC2`, the melting point was 146 °C.
